The test system of data set [1] is C13* ovarian cancer cells (cisplatin resistant). Kind of data set: MTT cytotoxicity test, 72 h. Particulars: for Resistant factor (RF): IC50 resistant/parent line, C13*/2008; for IC50: read-out: IC50 C13* ovary, MTT, 72 h. The format is cell-based, human.
A further data set has as its system PSN-1 3D spheroids. Kind of data set: Cytotoxicity in 3D spheroid cultures, APH test. The following applies: for IC50: read-out: IC50 PSN-1 3D, spheroids, 72 hours.
Data set [2] concerns PSN-1 pancreatic cancer cells. Kind of data set: MTT cytotoxicity test, 72 h. Particulars: read-out: IC50 PSN-1 pancreas. The data set is classed as cell-based, human.
The test system of data set [3] is HEK293 cells. The data set can be described thus: MTT cytotoxicity test in non-cancerous cells. The data set is classed as cell-based, human. Particulars: for Selectivity index (SI) BCPAP: IC50 non-tumor (HEK293)/tumor cell line BCPAP; for Selectivity index (SI) LoVo: IC50 non-tumor (HEK293)/tumor cell line LoVo; for Selectivity index (SI) PSN-1: IC50 non-tumor (HEK293)/tumor cell line PSN-1; for IC50: read-out: IC50 HEK293, MTT, 72 h, non-cancerous cells.

The subject of data set [4] is BCPAP thyroid cancer cells. Kind of data set: MTT cytotoxicity test, 72 h. The format is cell-based, human. Particulars: read-out: IC50 BCPAP thyroid.
Data set [5] relates to panel of human cancer cell lines (HCT-15, BCPAP, PSN-1, LoVo, 2008, C13*). The data set can be described thus: MTT cytotoxicity test, average over the six cell lines. The data set is classed as cell-based. The following applies: for IC50: read-out: Average IC50, average of one compound over the six cell lines.
Data set [6] has as its system 2008 ovarian adenocarcinoma cells (cisplatin sensitive). Kind of data set: MTT cytotoxicity test, 72 h. The following applies: read-out: IC50 2008 ovary. The data set is classed as cell-based, human.
The test system of another data set is LoVo colon cancer cells. Kind of data set: MTT cytotoxicity test, 72 h. The data set is classed as cell-based, human. Particulars: read-out: IC50 LoVo colon.
The subject of data set [7] is HCT-15 colon cancer cells. The data set can be described thus: MTT cytotoxicity test, 72 h. The format is cell-based, human. Particulars: read-out: IC50 HCT-15 colon.
The subject of data set [8] is HEK293 cells. Kind of data set: Mitochondrial membrane potential in non-cancerous cells. The following applies: 24 h, 1 µM. The format is cell-based, human.
Data set [9] deals with PSN-1 cells. The data set can be described thus: ROS production. The format is cell-based, human. The following applies: 10 μM, compared with antimycin A.
For data set [10], the system named is PSN-1 cells. The data set can be described thus: Mitochondrial membrane potential. The format is cell-based, human. The following applies: 24 h, 1 μM.
Data set [11] in a line: Stability in phosphate buffer at 37 °C monitored by HPLC. The following applies: pH 7, HPLC, followed over days. The format is physicochemical.
The subject of data set [12] is LoVo OXP colon cancer cells. Kind of data set: MTT cytotoxicity test, oxaliplatin resistant cells. Particulars: IC50 resistant/parent line. The format is cell-based, human.
Data set [13] relates to HEK293 cells. The data set can be described thus: ROS production in non-cancerous cells. The format is cell-based, human. The following applies: 10 µM.
The next data set addresses T1, COX-2 (Homo sapiens, UniProt P35354).
T1 sequence (P35354 18-604): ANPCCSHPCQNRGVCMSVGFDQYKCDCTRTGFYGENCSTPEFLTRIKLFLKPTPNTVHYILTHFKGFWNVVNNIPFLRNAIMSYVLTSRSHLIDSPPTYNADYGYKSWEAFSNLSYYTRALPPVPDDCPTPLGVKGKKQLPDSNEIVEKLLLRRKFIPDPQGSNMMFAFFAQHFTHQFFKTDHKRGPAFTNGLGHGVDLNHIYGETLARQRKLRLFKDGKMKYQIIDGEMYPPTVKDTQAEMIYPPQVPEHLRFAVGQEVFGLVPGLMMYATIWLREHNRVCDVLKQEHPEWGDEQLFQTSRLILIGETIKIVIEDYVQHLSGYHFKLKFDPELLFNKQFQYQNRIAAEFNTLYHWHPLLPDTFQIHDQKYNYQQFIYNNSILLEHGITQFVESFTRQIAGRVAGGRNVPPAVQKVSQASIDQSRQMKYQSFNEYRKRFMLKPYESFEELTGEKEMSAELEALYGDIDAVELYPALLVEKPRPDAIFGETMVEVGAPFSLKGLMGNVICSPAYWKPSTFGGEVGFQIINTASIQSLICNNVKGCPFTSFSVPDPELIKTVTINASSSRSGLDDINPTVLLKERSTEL
The data set can be described thus: COX-2 inhibition in treated cells. The format is cell-based. Particulars: PSN-1 cells, 24 h, 1 μM.

Take `[NH2][Pt]([NH2])([Cl])[Cl]` [CDDP, Cisplatin]: in [1], the “Resistant factor (RF)” value was 10.1. Also, the half-inhibitory concentration (IC50) in data set [1] is 22.5 ± 3.15 µM; in the data set with PSN-1 3D spheroids, 52.6 ± 3.78 µM; in data set [2], 18.2 ± 3.11 µM; in the data set with HEK293 cells [3], 19.6 ± 2.33 µM; in data set [4] it was 7.38 ± 1.53 µM; in data set [5], 12.5 µM. The half-maximal inhibitory concentration (IC50) in [6] turned out to be 2.22 ± 1.02 µM; with LoVo colon cancer cells, 9.15 ± 2.07 µM; in data set [7], 15.3 ± 2.63 µM. Further, the “Selectivity index (SI) BCPAP” value with HEK293 cells [3] stood at 2.6. Further, the “Selectivity index (SI) LoVo” value in the data set with HEK293 cells [3] came out at 2.1. Further, the “Selectivity index (SI) PSN-1” value in the data set on HEK293 cells [3] came out at 1.1.
Consider `[NH2][Pt]([NH2])([Cl])([Cl])([O]C(=O)CCCc1ccccc1)[O]C(=O)C(Cl)Cl` [CPD, ctc-[Pt(NH3)2(PhB)(DCA)Cl2]], for which the entries for the “Resistant factor (RF)” value in [1] and in [12] were 1.8 and less than 2, respectively. Moreover, the IC50 in data set [1] turned out to be 0.58 ± 0.06 µM; with PSN-1 3D spheroids, 0.95 ± 1.12 µM; in [2], 0.1 ± 0.02 µM; with HEK293 cells [3], 1.56 ± 0.22 µM; in data set [4], 0.11 ± 0.03 µM; in data set [5], 0.37 µM. The IC50 in [6] was 0.33 ± 0.04 µM; in the data set with LoVo colon cancer cells, 0.019 ± 0.01 µM; in [7], 1.06 ± 0.13 µM. The “Times more active than cisplatin in PSN-1 3D spheroids” value with PSN-1 3D spheroids (72 hours) was “more than 50 fold”. Besides, the “Selectivity index (SI) BCPAP” value with HEK293 cells [3] is 14.2. The “Selectivity index (SI) LoVo” value in the data set with HEK293 cells [3] is 82.1. In the data set with HEK293 cells [3], the “Selectivity index (SI) PSN-1” value is given as 15.6. For the same molecule, in the data set with HEK293 cells [8], the “Effect on mitochondrial membrane potential” value is given as “barely effective”. In the data set on PSN-1 cells [9], the “Increase in cellular basal ROS production” value is on record as “only slightly inferior to that elicited by antimycin A”. Besides, the “Average IC50, times lower than cisplatin” value in data set [5] (average over six cell lines) was determined as 34 fold. The “Average IC50, times lower than oxaliplatin” value in data set [5] (average over six cell lines) was determined as 9 fold. In addition, the “Average IC50, times more potent than CVD” value in data set [5] (average over six cell lines) is 3 fold. The “Cells with hypopolarized mitochondrial membrane potential” value in the data set with PSN-1 cells [10] was 25–30%. Moreover, the “Stability in phosphate buffer solution” value in [11] is given as “stable”. Also, in the data set on HEK293 cells [13], the “Induction of cellular ROS production” value is “barely effective”. The molecule also yielded a COX-2 inhibition at COX-2 of 8.4%.
With `O=C1[O][Pt]2([NH][C@@H]3CCCC[C@H]3[NH]2)[O]C1=O` [OXP, oxaliplatin], the “Resistant factor (RF)” value in data set [1] was 2.0. In addition, the IC50 was 3.06 ± 1 µM in data set [1]; 8.25 ± 3.42 µM in data set [2]; 4.37 ± 1.07 µM in [4]; 3.23 µM in [5]; 1.53 ± 0.88 µM in data set [6]; 1.01 ± 0.34 µM in the data set on LoVo colon cancer cells. The 50% inhibitory concentration (IC50) in data set [7] was 1.15 ± 0.43 µM.

(Values after paper PMC5944384 (Chemical Science, 2018).)
